Key:
[1] = target: Sodium-dependent serotonin transporter (Homo sapiens, UniProt P31645); test: Displacement of [3H]citalopram from human SERT expressed in HEK293 cell membranes
HEK293 [2] = test: Ratio of IC50 for human DAT expressed in HEK293 cell membranes to IC50 for human SERT expressed in HEK293 cell membranes; format: cell-based
HEK293 [3] = test: Ratio of IC50 for human NET expressed in HEK293 cell membranes to IC50 for human SERT expressed in HEK293 cell membranes; format: cell-based
[4] = target: T1, Sodium-dependent noradrenaline transporter (Homo sapiens, UniProt P23975); test: Displacement of [3H]nisoxetine from human NET expressed in HEK293 cell membranes at 1 uM
T1 sequence (P23975 whole entry): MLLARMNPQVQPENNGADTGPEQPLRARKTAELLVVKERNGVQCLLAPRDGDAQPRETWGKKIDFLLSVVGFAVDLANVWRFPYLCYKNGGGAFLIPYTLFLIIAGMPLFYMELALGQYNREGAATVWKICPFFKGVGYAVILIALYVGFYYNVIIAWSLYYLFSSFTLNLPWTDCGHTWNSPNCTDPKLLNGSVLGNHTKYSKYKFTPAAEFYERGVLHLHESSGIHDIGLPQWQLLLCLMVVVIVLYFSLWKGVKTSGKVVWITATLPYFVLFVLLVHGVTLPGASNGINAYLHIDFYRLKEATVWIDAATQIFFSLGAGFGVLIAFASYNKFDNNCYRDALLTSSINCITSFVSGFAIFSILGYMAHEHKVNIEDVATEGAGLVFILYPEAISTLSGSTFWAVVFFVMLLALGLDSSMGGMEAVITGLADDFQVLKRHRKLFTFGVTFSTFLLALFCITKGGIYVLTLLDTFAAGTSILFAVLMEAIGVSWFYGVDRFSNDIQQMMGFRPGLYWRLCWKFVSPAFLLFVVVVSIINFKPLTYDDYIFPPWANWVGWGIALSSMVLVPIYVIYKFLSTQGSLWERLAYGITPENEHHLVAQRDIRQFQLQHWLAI

[5] = target: T2, Sodium-dependent dopamine transporter (Homo sapiens, UniProt Q01959); test: Displacement of [3H]WIN-35428 form human DAT expressed in HEK293 cell membranes at 1 uM
T2 sequence (Q01959 whole entry): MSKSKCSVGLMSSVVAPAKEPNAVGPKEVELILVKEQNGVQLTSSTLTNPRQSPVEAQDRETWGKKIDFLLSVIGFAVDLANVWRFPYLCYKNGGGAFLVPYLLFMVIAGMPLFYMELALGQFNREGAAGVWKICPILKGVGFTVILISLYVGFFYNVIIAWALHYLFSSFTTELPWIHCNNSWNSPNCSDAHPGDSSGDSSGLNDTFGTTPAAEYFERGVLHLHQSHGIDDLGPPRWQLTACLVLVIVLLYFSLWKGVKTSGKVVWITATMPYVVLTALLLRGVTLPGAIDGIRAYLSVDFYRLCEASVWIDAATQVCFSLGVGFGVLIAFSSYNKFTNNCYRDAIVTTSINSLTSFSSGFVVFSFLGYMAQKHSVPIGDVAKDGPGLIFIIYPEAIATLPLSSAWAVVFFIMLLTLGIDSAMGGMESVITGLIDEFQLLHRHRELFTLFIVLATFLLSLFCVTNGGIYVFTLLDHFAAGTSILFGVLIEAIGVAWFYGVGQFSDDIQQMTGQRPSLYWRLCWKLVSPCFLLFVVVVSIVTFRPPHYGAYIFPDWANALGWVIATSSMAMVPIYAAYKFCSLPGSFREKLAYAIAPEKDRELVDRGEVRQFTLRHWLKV

[6] = target: T2, Sodium-dependent dopamine transporter; test: Displacement of [3H]WIN-35428 form human DAT expressed in HEK293 cell membranes
[7] = target: T1, Sodium-dependent noradrenaline transporter; test: Displacement of [3H]nisoxetine from human NET expressed in HEK293 cell membranes

Sodium-dependent serotonin transporter, sequence (P31645 whole entry): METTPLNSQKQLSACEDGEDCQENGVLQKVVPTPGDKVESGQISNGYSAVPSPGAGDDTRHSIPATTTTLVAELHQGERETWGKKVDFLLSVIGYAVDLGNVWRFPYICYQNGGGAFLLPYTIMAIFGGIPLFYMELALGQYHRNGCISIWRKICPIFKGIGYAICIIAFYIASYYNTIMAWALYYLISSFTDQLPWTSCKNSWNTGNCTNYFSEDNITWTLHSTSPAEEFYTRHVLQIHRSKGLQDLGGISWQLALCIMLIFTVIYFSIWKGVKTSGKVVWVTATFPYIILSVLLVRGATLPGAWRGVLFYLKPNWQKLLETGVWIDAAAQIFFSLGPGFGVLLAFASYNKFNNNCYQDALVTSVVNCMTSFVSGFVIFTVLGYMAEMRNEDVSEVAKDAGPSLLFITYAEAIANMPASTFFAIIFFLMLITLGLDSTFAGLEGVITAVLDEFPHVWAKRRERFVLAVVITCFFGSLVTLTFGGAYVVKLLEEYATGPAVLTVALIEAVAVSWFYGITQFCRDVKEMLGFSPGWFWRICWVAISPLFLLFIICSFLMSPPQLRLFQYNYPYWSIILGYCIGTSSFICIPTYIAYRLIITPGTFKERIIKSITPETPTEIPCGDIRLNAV

For CCNC[C@@H]1CCC[C@H]1c1ccc2[nH]cc(C#N)c2c1 (racemic), the IC50 [1] was 260 nM.
CCN(C)C[C@@H]1CCC[C@H]1c1ccc2[nH]cc(C#N)c2c1 (racemic) was tested, and the IC50 [1] was 200 nM.
CN(C)C[C@@H]1CCC[C@H]1c1ccc2c(c1)c(C#N)cn2C (racemic) gave an IC50 [1] of 570 nM.
For CN(C)C[C@H]1CCC[C@H]1c1ccc2[nH]cc(C#N)c2c1 (racemic), the Ratio IC50 (HEK293 [2]) was over 100, the Ratio IC50 (HEK293 [3]) was over 100 and the inhibition [4] was 68%. It also gave an inhibition [5] of 56% and an IC50 [1] of 18 nM.
CNC[C@@H]1CCC[C@H]1c1ccc2[nH]cc(C#N)c2c1 (racemic) was tested, and the Ratio IC50 (HEK293 [2]) was over 100, the IC50 [6] was 750 nM and the Ratio IC50 (HEK293 [3]) was over 100. For the same compound, the inhibition [4] was 16%, the inhibition [5] was 49% and the IC50 [7] was 3700 nM. It also gave an IC50 [1] of 4.3 nM.
CN(C)C[C@H]1CCC[C@H]1c1c[nH]c2ccc(C#N)cc12 gave an IC50 [1] of 1.1 nM.
Work on CN(C)C[C@@H]1C[C@H]1c1ccc2[nH]ccc2c1 (racemic) yielded an IC50 [1] of over 1000 nM.
In the case of CN(C)C[C@@H]1C[C@H]1c1ccc2[nH]cc(C#N)c2c1 (racemic), the Ratio IC50 (HEK293 [2]) is reported as over 100, the Ratio IC50 (HEK293 [3]) is reported as over 100 and the inhibition [4] is reported as 55%. The inhibition [5] was 39% and the IC50 [1] was 6 nM.
CNC[C@H]1CCC[C@H]1c1ccc2[nH]cc(C#N)c2c1 (racemic) gave a Ratio IC50 (HEK293 [2]) of 10, an IC50 [6] of 660 nM and a Ratio IC50 (HEK293 [3]) of 10. It also gave an inhibition [4] of 78%, an inhibition [5] of 53% and an IC50 [7] of 510 nM. For the same compound, the IC50 [1] was 64 nM.
CN(C)C[C@H]1C[C@@H]1Cc1ccc2[nH]cc(C#N)c2c1 (racemic) was tested, and the Ratio IC50 (HEK293 [2]) was over 100, the Ratio IC50 (HEK293 [3]) was over 100 and the inhibition [4] was 25%. It also gave an inhibition [5] of 17% and an IC50 [1] of 97 nM.
Work on CN(C)C[C@@H]1CCC[C@H]1c1ccc2[nH]cc(C#N)c2c1 (racemic) yielded a Ratio IC50 (HEK293 [2]) of over 100, a Ratio IC50 (HEK293 [3]) of over 100 and an inhibition [4] of -1.7%. The inhibition [5] was 50%, the IC50 [7] was 8200 nM and the IC50 [1] was 3.8 nM.
Compound CN(C)C[C@H]1C[C@@H]1c1c[nH]c2ccc(C#N)cc12 has an IC50 [1] of 0.56 nM.
CN(Cc1ccccc1)C[C@@H]1CCC[C@H]1c1ccc2[nH]cc(C#N)c2c1 (racemic) showed an IC50 [1] of 140 nM.
For N#Cc1c[nH]c2ccc([C@@H]3CCC[C@H]3CN3CCCC3)cc12 (racemic), the IC50 [1] was 300 nM.
Compound CCN(CC)C[C@@H]1CCC[C@H]1c1ccc2[nH]cc(C#N)c2c1 (racemic) has an IC50 [1] of 710 nM.

Source: ChEMBL document CHEMBL2380269, “Conformationally restricted homotryptamines. Part 6: indole-5-cycloalkyl methylamines as selective serotonin reuptake inhibitors” (Bioorg Med Chem Lett, 2013)
